Measurements reported in patent US7678390B2, “Carbon monoxide as a biomarker and therapeutic agent” (priority 1999, dated 2010).

Tests used:
[1] = test system: mice given LPS (wild type); assay: LPS-induced serum cytokines in mice exposed to CO; type: in vivo, mouse
From the text: Animals. Male C57BL/6 and IL-10 (−/−) mice were purchased from Jackson Laboratory (Bar Harbor, Me.), and allowed to acclimate for one week with rodent chow and water ad libitum. The MKK (−/−) mice were generated as previously described [Lu, et al., EMBO J. 18:1845-1857 (1999)]. Wild type littermates were used as controls. All animals were housed in accordance with guidelines from the American Association for Laboratory Animal Care and Research Protocols and were approved by the Animal Care and Use Committee of Yale University School of Medicine. Reagents. All reagents were purchased from Sigma Chemical Co. (St Louis, Mo.) unless specified otherwise. Plasmid Construct. Plasmid pSFFV/HO-1 was constructed by insertion of the rat HO-1 cDNA [Shibahara, et al., Proc. Natl. Acad. Sci. USA. 82: 7865-7869 (1985)] downstream of the Friend spleen focus-forming virus 5′ long-terminal repeat in the mammalian expression vector pSFFV/neo [Fuhlbrigge, et al, Proc. Natl. Acad. Sci. USA. 85: 5649-5653 (1988)] (kindly provided by Stanley Korsmeyer). Transfection. Stable transfections were carried out by the calcium phosphate precipitation technique as previously described [Alam, J., J. Biol. Chem. 269: 25049-25056 (1994)]. Briefly, RAW cells were plated (1×10^6/10 cm plate) and 16 h later, transfected with […] of pSFFV/neo or pSFFV/HO-1. Cells were exposed to the DNA-CaPO4 precipitate for 6 h, shocked by a 1 min treatment with glycerol in phosphate-buffered saline and cultured for an additional 24 h in complete medium before addition of G418. Transfectants were selected over a 3-week period in the presence of G418 (up to […]) and individual clones were isolated by limited dilution. Cell Culture Experimentation. RAW 264.7 mouse peritoneal macrophages were purchased from […] (Rockville, Md.) and primary culture of rat pulmonary vascular smooth muscle cells were harvested from male Sprague Dawley rats (250-300 g) as previously described [Gunther, et al., J. Cell. Biol. 92: 289-298 (1982).]. Both cell types were grown in DMEM containing 10% FBS and gentamicin ([…]) in a humidified atmosphere of 5% CO2/balanced air or 250 ppm CO/5% CO2/balanced air. After a 2 h pretreatment with either CO or air, LPS ([…]) or sterile saline was added to the culture media and the culture plates were returned to the chamber(s). At various time points, cell plates were removed from the chamber to collect media and/or cells for Western analysis. CO Exposures. Mice or macrophages were exposed to compressed air or 250 ppm CO. For cell culture experiments, 5% CO2 was also present for buffering requirements. CO at a concentration of 1% (10,000 ppm) in compressed air was mixed with compressed air with or without CO2 in a stainless steel mixing cylinder before delivery into the exposure chamber. Flow into the 3.70-ft^2 plexiglass animal chamber was maintained at 12 L/min and into the 1.2 ft^2 cell culture chamber at a flow of 2 L/min. The cell culture chamber was humidified and maintained at 37° C. A CO analyzer (Interscan, Chatsworth, Calif.) was used to measure CO levels continuously in the chambers. Gas samples were taken by the analyzer through a port in the top of the chambers at a rate of 1 L/min and analyzed by electrochemical detection, with a sensitivity of 10-600 ppm. Concentration levels were measured hourly and there were no fluctuations in the CO concentrations once the chamber had equilibrated (approximately 5 min). Animal Experimentation. Mice were prebled from the retroorbital sinus (0.25 ml) and then exposed to CO (250 ppm) or room air for 1 h prior to administration of LPS (1 mg/kg, i.p.), E. coli serotype O127:B8. 1 and 16 h thereafter, they were removed from the exposure apparatus individually and a blood sample was obtained via the retroorbital sinus. After the blood collection, the mice were immediately returned to the exposure chamber. […]

rats = assay: Tolerability of low concentrations of CO in rats; type: in vivo, rat
From the text: Animals were exposed to >98% O2 or 98% O2+CO mixtures at a flow rate of 12 liters/min in a 3.70-cubic-foot glass exposure chamber. Animals were supplied food and water during the exposures. CO at a concentration of 1% (10,000 ppm) in compressed air was mixed with >98% O2 in a stainless steel mixing cylinder prior to entering the exposure chamber. By varying the flow rates of CO into the mixing cylinder, concentrations delivered to the exposure chamber were controlled. Because the flow rate was primarily determined by the O2 flow, only the CO flow was changed to generate the different concentrations delivered to the exposure chamber. A carbon monoxide analyzer (Interscan Corporation, Chatsworth, Calif.) was used to measure CO levels continuously in the chamber. Gas samples were taken by the analyzer through a port in the top of the exposure chamber at a rate of 1 liter/min and analyzed by electrochemical detection with a sensitivity of 10 ppm to 600 ppm. CO levels in the chamber were recorded at hourly intervals and there were no changes in chamber CO concentrations once the chamber had equilibrated. O2 concentrations in the chamber were determined using a gas spectrometer.

RAW 264.7 cells = assay: Nitrate/nitrite analysis of cell culture media; type: cell-based, mouse; settings: 1 h post LPS, presence or absence of CO
Experimental: Nitrate/Nitrite Analysis. Both analytes were measured in the cell culture media which had been ultrafiltered to remove all proteins greater than 10,000 molecular weight. All samples were than analyzed according to the assay kit protocols. (R & D, Minneapolis, Minn.). cGMP Radioimmunoassay (RIA) in macrophages. Macrophages or vascular smooth muscle cells were exposed to CO (250 ppm) or air. 20 min before the end of the exposure 1 mM of 3-isobutyl-1-methylxanthine (IBMX) was added to the cells to prevent phosphodiesterase degradation of cGMP. After 2 h of exposure, cells were removed from the exposure chamber, rinsed with PBS and then 0.5 ml of 75% EtOH was added to the plate and cells were scraped and disrupted via sonication for 5 s. Samples were then centrifuged at 2000 g for 10 min. Supernatants were transferred to fresh tubes and evaporated to dryness. cGMP concentration in the cell extracts was determined by radioimmunoassay (NEN, Boston, Mass.) according to manufacturer's instructions. cGMP was normalized to protein concentration as determined by Bradford assay. Statistical Analysis. Data are expressed as the mean±SE. Differences in measured variables between experimental and control group were assessed using Student's t tests. Statistical calculations were performed on a Macintosh personal computer using the Statview II Statistical Package (Abacus Concepts, Berkeley, Calif.). […]

In the case of `[C-]#[O+]` [CO, carbon monoxide], the “TNF-α or IL-10 production without LPS” value ([1]; CO (250 ppm) alone, MKK3(−/−) or wild type(+/+) mice) was “no effect”, the “IL-10 in response to LPS in vivo” value ([1]; LPS 1 mg/kg, mice, CO 250 ppm) was “augmentation” and the “EC50 for attenuation of LPS-induced TNF-α production in vivo” value ([1]; LPS 1 mg/kg, mice, dose-dependent) was 69.9 ppm. For the same compound, the “LPS-induced TNF-α production in vivo” value ([1]; LPS 1 mg/kg, mice, in the presence of CO) was “significant attenuation”, the inhibition at 250 ppm ([1]; Mus musculus, wild type controls, LPS, CO 250 ppm, 1 h, read-out: inhibition of serum TNF-α levels) was 73% and the “LPS-induced serum TNF-α production” value ([1]; wild type(+/+) littermates, LPS 1 mg/kg, 250 ppm CO) was “attenuated levels”. The “LPS-induced IL-10 levels” value ([1]; wild type(+/+) mice, LPS 1 mg/kg, 250 ppm CO) was “augmented”, the “500 ppm as fraction of the lethal concentration of CO” value (rats; in our model (data not shown)) was “one twentieth” and the untoward effects (rats; rats exposed to CO (50-500 ppm) alone) was “did not exhibit any untoward effects”. For the same compound, the “nitrate or nitrite levels” value (RAW 264.7 cells) was “no increases”.
